“Also recorded” adds a separate entry of the source. Like-named read-outs stand apart in the source and are kept apart here.
Assays:
[1] = tested on: C. albicans; assay type: cell-based, Candida albicans; settings: for effect of acids on hyphal formation in C. albicans: compared with lactic acid
Protocol: (§1) Candida (albicans, dubliensis, and tropicalis) hyphae were induced by incubating 10^6 CFU/ml cells with 10% FCS, for 3 h at 37° C. in the wells of a 24-well plate, in a total volume of 500 μl per repetition and 4 biological repetitions per condition. To investigate the effect of lactobacilli 10^8 CFU/ml L. rhamnosus strains were added to the wells and co-incubated. To investigate the effect of Msp1, 5 μg/ml or 10 μg/ml of purified Msp1 from L. rhamnosus GG or L. rhamnosus GR-1 was added to the wells and co-incubated. To investigate the effect of acids, 100 μl of a 1% lactic acid or 1% butyric acid was added to the wells and co-incubated. After (co-) incubation for 3 h, at least 100 yeast cells and/or hyphae were counted in each well (4 per condition) and the ratio of hyphae to yeast cells was calculated.

[2] = tested on: C. albicans biofilms; experiment: Inhibition of C. albicans biofilm formation (XTT, absorbance 492 nm); assay type: cell-based, Candida albicans; settings: 24 h
Protocol: The inhibiting effects on C. albicans biofilms were assessed. Briefly, C. albicans was grown overnight in YPD medium and suspended to 10^6 CFU/ml and added to the wells of a 96 well plate (80 μl/well), together with the samples (supernatant, lactic acid, Msp1) or controls (MRS or H20). After incubation for 24 h at 37° C., the biofilms were washed twice and then 2,3-bis (2-methoxy-4- nitro-5-sulfophenyl)-2H-tetrazolium-5-carboxanilide (90 μl, 1 mg/ml) (Sigma Aldrich) and phenazine methosulphate (10 μl, 0.2 mg/ml) (Sigma Aldrich) were added to the wells. After a second incubation (37° C., 30 minutes, in the dark), the absorbance at 492 nm was measured using a Synergy™ HTX multi-mode reader (Biotek, Drogenbos, Belgium).

[3] = tested on: C. dubliensis; experiment: Inhibition of FCS-induced hyphal formation in C. dubliensis; assay type: cell-based, Candida dubliensis; settings: different concentrations of Msp1
Protocol: as §1

[4] = tested on: C. tropicalis; experiment: Inhibition of FCS-induced hyphal formation in C. tropicalis; assay type: cell-based, Candida tropicalis; settings: different concentrations of Msp1
Protocol: as §1

[5] = Chitinase activity based on breakdown of chitin-azure; assay type: biochemical; settings: compared with commercial chitinase from Streptomyces griseus; sodium acetate buffer control
Protocol: First, the chitinase activity of Msp1 was investigated based on breakdown of chitin-azure (Sigma), as described previously. Further confirmation was based on inhibition of chitinase activity by 2.5 mM Bisdionine C (Sigma), as described previously.

## Cn1cnc2c1c(=O)n(CCCn1c(=O)c3c(ncn3C)n(C)c1=O)c(=O)n2C [Bisdionine C]
[1]; 2.5 mM Bisdionine C in the presence of Msp1
  rescue of C. albicans hyphal morphogenesis from Msp1 inhibition: partially reversed; also recorded: can prevent hyphal inhibition partially

## CCCC(=O)O [Butyric acid, butyric acid]
[1]
  effect of acids on hyphal formation in C. albicans: comparable effects

## CC(O)C(=O)O (centres unmarked) [Lactic acid, lactic acid]
[2]; lactic acid 0.4%
  anti-biofilm activity on C. albicans: showed anti-biofilm activity
[1]; 0.5-2% lactic acid, D- and L-lactic acid 1:1
  reduction of hyphal morphogenesis: reduced hyphal morphogenesis
[1]; 1% lactic acid (D- and L-lactic acid 1:1)
  reduction of hyphal morphogenesis: approximately 50%

## Cl [hydrochloric acid]
[1]
  effect of acids on hyphal formation in C. albicans: inhibited hyphae formation significantly

B1: Msp1: bifunctional peptidoglycan/chitin hydrolase, major secreted protein 1, purified from L. rhamnosus GG supernatant (protein)
chain: MVDSKKVLSVTAGFVGAAGLAALATGANTVSASTGTVSYKSGATTVWNSPSWHQVKRYVTFGDTVQLLGKTVDQNGATWYKVGDNQWIPELYLNVAGKTATVETPSSAASQTAVSQAPASQAPTSQAPATQTPAAPQTDTQTANTQLYVKNIGSAVTVWTTPAYTHATGQYLEGSQTLTAVAQQQANGETWYRLANGGYVPARFVSTTPVAVTPQPAAPQSNEASVASTNTNAANDSAAASSAAASQAAASSAAASTAAANAAVASANATASQAAASEAAASQAAASQAAASQAAASQAAASQAAASQAAASQAAASQAAASQAAASQAAANAAQQAPANQANVTTTQVNANQAQQQTATATPAVNTSNQTAAVSASRQAKIQAVIAIAEQQVGKPYVWGGKGPNSFDCSGLMYYAFLNGAGVNIGGWTVPQESSGTQVSLSALQPGDLLFWGSHGSTYHVALYIGGGTMIQAPQPGENVKYTALAYFMPDFAVRPSL
modifications: Msp1 protein
notes: bifunctional peptidoglycan/chitin hydrolase, major secreted protein 1, purified from L. rhamnosus GG supernatant
[3]
  effect on FCS-induced hyphal formation in C. dubliensis: concentration-dependent effect
[2]; Msp1 10 μg/mL
  anti-biofilm activity on C. albicans: showed anti-biofilm activity
[1]; concentrations as low as 5 μg/mL
  reduction of hyphal morphogenesis: more than 50%
[4]
  effect on FCS-induced hyphal formation in C. tropicalis: concentration-dependent effect
[5]
  breakdown of chitin (chitin-azure): able to break down chitin, to the same extent as a commercially available chitinase; also recorded: can break down chitin derivative, chitin-azure

From patent publication US12439925B2, “Anti-pathogenic activity of a bifunctional peptidoglycan/chitin hydrolase” (Universiteit Antwerpen, priority 2018, dated 2025)
